What all share (format): in vivo, human
The subject of assay [1] is subjects. Kind of assay: Standard short-term memory test (repeating a read series of numbers backward). To be noted: three of the five subjects; test 30 minutes after ingestion. The procedure: The test consisted of an examiner reading a series of numbers to the subject and the subject subsequently being asked to repeat said numbers backward. In all cases, the test was initiated 30 minutes after ingestion of the composition.

In assay [2] the test system is subjects. Nature of the assay: Stimulant effect: scores in video game of skill Pilot Wing before and after consuming composition. The following applies: five subjects, crossover over three days, Formulation I vs 180 mg caffeine vs placebo. The protocol: Five subjects were tested over a period of three days. […] Both prior to and after consuming the composition, each subject played a video game of skill called Pilot Wing™ made by Nintendo™.

Assay [3] can be described thus: Weight loss in overweight subjects, daily administration over two weeks. The following applies: Formulation I (ten subjects) vs 180 mg caffeine capsules (five) vs placebo (five), FIG. 1. From the text: Weights were averaged and weight loss was charted every three days in all groups.

For the compound `Cn1c(=O)c2c(ncn2C)n(C)c1=O` [caffeine], in assay [1], the “digits repeated backwards without error” value is recorded as “could not repeat this accomplishment”. The “video game scores after consuming the composition” value in assay [2] is reported as “higher scores after consuming the caffeine, compared to consuming the placebo”. Further, in assay [3], the “weight loss compared between groups” value is recorded as “not matched”.

The values are drawn from patent US20030165585A1, “Xanthine-containing compositions for oral administration and uses related thereto” (priority 2002, published 2003).
